Data taken from EP0984975B1, “MULTICYCLIC ERYTHROMYCIN DERIVATIVES” (Abbott Laboratories, priority 1997, dated 1998).

Legend:
Assay in all cases: In vitro assay of antibacterial activity (agar dilution MIC)
Format in all cases: cell-based
CANDIDA ALBICANS CCH 442 = conditions: BHI agar, 35-37 °C for 20 to 24 hours, unit assumed
Procedure: (§1) Representative compounds of the present invention were assayed in vitro for antibacterial activity as follows: Twelve petri dishes containing successive aqueous dilutions of the test compound mixed with 10 mL of sterilized Brain Heart Infusion (BHI) agar (Difco 0418-01-5) were prepared. Each plate was inoculated with 1:100 (or 1:10 for slow-growing strains, such as Micrococcus and Streptococcus) dilutions of up to 32 different microorganisms, using a Steers replicator block. The inoculated plates were incubated at 35-37 °C for 20 to 24 hours. In addition, a control plate, using BHI agar containing no test compound, was prepared and incubated at the beginning and end of each test.
(§2) An additional plate containing a compound having known susceptibility patterns for the organisms being tested and belonging to the same antibiotic class as the test compound was also prepared and incubated as a further control, as well as to provide test-to-test comparability. Erythromycin A was used for this purpose.
(§3) After incubation, each plate was visually inspected. The minimum inhibitory concentration (MIC) was defined as the lowest concentration of drug yielding no growth, a slight haze, or sparsely isolated colonies on the inoculum spot as compared to the growth control.

EN[…] ATCC 8043 = conditions: ENTEROCOCCUS FAECIUM ATCC 8043; BHI agar, 35-37 °C for 20 to 24 hours; unit assumed
Procedure: as §1, §2, §3

ESCHERICHIA COLI DC-2 = conditions: BHI agar, 35-37 °C for 20 to 24 hours, unit assumed
Procedure: as §1, §2, §3

ESCHERICHIA COLI JUHL = conditions: ESCHERICHIA COLI JUHL; BHI agar, 35-37 °C for 20 to 24 hours; unit assumed
Procedure: as §1, §2, §3

ESCHERICHIA COLI SS = conditions: ESCHERICHIA COLI SS; BHI agar, 35-37 °C for 20 to 24 hours; unit assumed
Procedure: as §1, §2, §3

[1] = tested on: MYCOBACTERIUM SMEGMATIS ATCC 114; conditions: MYCOBACTERIUM SMEGMATIS ATCC 114; BHI agar, 35-37 °C for 20 to 24 hours; unit assumed
Procedure: as §1, §2, §3

M[…] ATCC 4698 = conditions: MICROCOCCUS LUTEUS ATCC 4698; BHI agar, 35-37 °C for 20 to 24 hours; unit assumed
Procedure: as §1, §2, §3

M[…] ATCC 9341 = conditions: MICROCOCCUS LUTEUS ATCC 9341; BHI agar, 35-37 °C for 20 to 24 hours; unit assumed
Procedure: as §1, §2, §3

N. ASTEROIDES ATCC 9970 = conditions: BHI agar, 35-37 °C for 20 to 24 hours, unit assumed
Procedure: as §1, §2, §3

[2] = tested on: STAPHYLOCOCCUS AUREUS 1775; conditions: BHI agar, 35-37 °C for 20 to 24 hours, unit assumed
Procedure: as §1, §2, §3

[3] = tested on: STAPHYLOCOCCUS AUREUS A-5278; conditions: BHI agar, 35-37 °C for 20 to 24 hours, unit assumed
Procedure: as §1, §2, §3

[4] = tested on: STAPHYLOCOCCUS AUREUS A5177; conditions: BHI agar, 35-37 °C for 20 to 24 hours, unit assumed
Procedure: as §1, §2, §3

[5] = tested on: STAPHYLOCOCCUS AUREUS ATCC 6538P; conditions: BHI agar, 35-37 °C for 20 to 24 hours, unit assumed
Procedure: as §1, §2, §3

[6] = tested on: STAPHYLOCOCCUS AUREUS CMX 553; conditions: BHI agar, 35-37 °C for 20 to 24 hours, unit assumed
Procedure: as §1, §2, §3

[7] = tested on: STAPHYLOCOCCUS AUREUS CMX 642A; conditions: BHI agar, 35-37 °C for 20 to 24 hours, unit assumed
Procedure: as §1, §2, §3

[8] = tested on: STAPHYLOCOCCUS AUREUS NCTC10649M; conditions: BHI agar, 35-37 °C for 20 to 24 hours, unit assumed
Procedure: as §1, §2, §3

[9] = tested on: STAPHYLOCOCCUS EPIDERMIDIS 3519; conditions: STAPHYLOCOCCUS EPIDERMIDIS 3519; BHI agar, 35-37 °C for 20 to 24 hours; unit assumed
Procedure: as §1, §2, §3

[10] = tested on: STREPTOCOCCUS BOVIS A-5169; conditions: STREPTOCOCCUS BOVIS A-5169; BHI agar, 35-37 °C for 20 to 24 hours; unit assumed
Procedure: as §1, §2, §3

[11] = tested on: STREPTOCOCCUS PYOGENES 930; conditions: STREPTOCOCCUS PYOGENES 930; BHI agar, 35-37 °C for 20 to 24 hours; unit assumed
Procedure: as §1, §2, §3

[12] = tested on: STREPTOCOCCUS PYOGENES EES61; conditions: STREPTOCOCCUS PYOGENES EES61; BHI agar, 35-37 °C for 20 to 24 hours; unit assumed
Procedure: as §1, §2, §3

[13] = tested on: STREPTOCOCCUS PYOGENES PIU 2548; conditions: STREPTOCOCCUS PYOGENES PIU 2548; BHI agar, 35-37 °C for 20 to 24 hours; unit assumed
Procedure: as §1, §2, §3

STR[…] 508 = conditions: STREPTOCOCCUS AGALACTIAE CMX 508; BHI agar, 35-37 °C for 20 to 24 hours; unit assumed
Procedure: as §1, §2, §3

SMILES | Antibacterial Activity (MIC's) (CANDIDA ALBICANS CCH 442) [µg/mL] | Antibacterial Activity (MIC's) (EN[…] ATCC 8043) [µg/mL] | Antibacterial Activity (MIC's) (ESCHERICHIA COLI DC-2) [µg/mL] | Antibacterial Activity (MIC's) (ESCHERICHIA COLI JUHL) [µg/mL] | Antibacterial Activity (MIC's) (ESCHERICHIA COLI SS) [µg/mL] | Antibacterial Activity (MIC's) [1] [µg/mL] | Antibacterial Activity (MIC's) (M[…] ATCC 4698) [µg/mL] | Antibacterial Activity (MIC's) (M[…] ATCC 9341) [µg/mL] | Antibacterial Activity (MIC's) (N. ASTEROIDES ATCC 9970) [µg/mL] | Antibacterial Activity (MIC's) [2] [µg/mL] | Antibacterial Activity (MIC's) [3] [µg/mL] | Antibacterial Activity (MIC's) [4] [µg/mL] | Antibacterial Activity (MIC's) [5] [µg/mL] | Antibacterial Activity (MIC's) [7] [µg/mL] | Antibacterial Activity (MIC's) [8] [µg/mL] | Antibacterial Activity (MIC's) [10] [µg/mL] | Antibacterial Activity (MIC's) [11] [µg/mL] | Antibacterial Activity (MIC's) [12] [µg/mL] | Antibacterial Activity (MIC's) [13] [µg/mL] | Antibacterial Activity (MIC's) (STR[…] 508) [µg/mL] | other results
CC[C@H]1OC(=O)[C@H](C)C(=O)[C@H](C)[C@@H](O[C@@H]2O[C@H](C)C[C@H](N(C)C)[C@H]2O)[C@](C)(OC)C[C@@H](C)C2=Nc3ccccc3N3C(=O)O[C@@]1(C)[C@H]3[C@H]2C [Ex 2, Compound of Formula (I): R^1 is methoxy: R^2 is H, R^3 is absent, the double bond is present, A, B, D and E are H, and Y and Z taken together with the atom to which they are attached form an oxo group] | > 100 | 0.2 | > 100 | > 100 | 1.56 | 3.1 | 0.78 | 0.1 | 0.39 | > 100 | > 100 | 0.39 | 0.39 | 0.39 | 0.39 | 0.1 | > 100 | 0.1 | 0.39 | 0.1 | Antibacterial Activity (MIC's) [6]: 0.39 µg/mL; Antibacterial Activity (MIC's) [9]: 0.39 µg/mL
CC[C@H]1OC(=O)[C@H](C)C(=O)[C@H](C)[C@@H](O[C@@H]2O[C@H](C)C[C@H](N(C)C)[C@H]2O)[C@](C)(OC)C[C@@H](C)C2=Nc3cc(OC)ccc3N3C(=O)O[C@@]1(C)[C@H]3[C@H]2C [Ex 5, Compound of Formula (I): R^1 is methoxy; R^2 is H, R^3 is absent, the double bond is present, A, B, and E are H, D is methoxy, and Y and Z taken together with the atom to which they are attached form an oxo group] | > 100 | 0.1 | > 100 | > 100 | 50 | 1.56 | 0.78 | 0.1 | 0.2 | > 100 | > 100 | 0.78 | 0.78 | 0.78 | 0.78 | 0.02 | > 100 | 0.02 | 0.39 | 0.02 | Antibacterial Activity (MIC's) [6]: 0.78 µg/mL; Antibacterial Activity (MIC's) [9]: 0.78 µg/mL
CC[C@H]1OC(=O)[C@H](C)C(=O)[C@H](C)[C@@H](O[C@@H]2O[C@H](C)C[C@H](N(C)C)[C@H]2O)[C@](C)(OC)C[C@@H](C)C2Nc3ccccc3N3C(=O)O[C@@]1(C)[C@H]3[C@H]2C (single isomer, unassigned) [Ex 3, Compound of Formula (I): R^1 is methoxy; R^2 is H, R^3 is H, the double bond is absent, A, B, D and E are H, and Y and Z taken together with the atom to which they are attached form an oxo group] | > 100 | 12.5 | > 100 | > 100 | 100 | 50 | 25 | 3.1 | 6.2 | > 100 | > 100 | 25 | 25 | 50 | 50 | 1.56 | > 100 | 3.1 | 25 | 3.1 | Antibacterial Activity (MIC's) [6]: 50 µg/mL; Antibacterial Activity (MIC's) [9]: 50 µg/mL
CC[C@H]1OC(=O)[C@H](C)C(=O)[C@H](C)[C@@H](O[C@@H]2O[C@H](C)C[C@H](N(C)C)[C@H]2O)[C@](C)(OC)C[C@@H](C)C2=Nc3cc(C#N)ccc3N3C(=O)O[C@@]1(C)[C@H]3[C@H]2C [Ex 6, Compound of Formula (I): R^1 is methoxy; R^2 is H, R^3 is absent, the double bond is present, A, B, and E are H, D is cyano and Y and Z taken together with the atom to which they are attached form an oxo group] | > 100 | 0.05 | > 100 | > 100 | 3.1 | 0.1 | 0.39 | 0.05 | 0.39 | > 100 | > 100 |  | 0.39 | 0.39 | 0.39 | 0.01 | > 100 | 0.01 | 0.39 | 0.05 | Antibacterial Activity (MIC's) [6]: 0.39 µg/mL; Antibacterial Activity (MIC's) [9]: 0.2 µg/mL
CC[C@H]1OC(=O)[C@H](C)C(=O)[C@H](C)[C@@H](O[C@@H]2O[C@H](C)C[C@H](N(C)C)[C@H]2O)[C@](C)(OC)C[C@@H](C)C2=Nc3cc(C)ccc3N3C(=O)O[C@@]1(C)[C@H]3[C@H]2C [Ex 4, Compound of Formula (I): R^1 is methoxy; R^2 is H, R^3 is absent, the double bond is present, A, B, and E are H, D is methyl, and Y and Z taken together with the atom to which they are attached form an oxo group] | > 100 |  | > 100 | > 100 | 0.2 | 100 | 0.2 | 0.1 | 0.1 |  | > 100 | 0.78 | 0.78 | 0.78 | 0.78 | 0.01 | > 100 | 0.01 | 0.2 | 0.01 | 
